Source: ChEMBL document CHEMBL4359816, “Discovery and Optimization of Quinolinone Derivatives as Potent, Selective, and Orally Bioavailable Mutant Isocitrate Dehydrogenase 1 (mIDH1) Inhibitors” (J Med Chem, 2019)
≈ marks a conversion by molar mass, not a printed value.

Test system: not listed separately
Assay: Metabolic stability in mouse liver microsomes assessed as compound remaining after 30 mins
Assay type: ADME, Microsome
Details: read-out: Stability

SMILES	remaining at 0.5 h [%]
N#Cc1ccc(NCc2cc3cc(Cl)ccc3[nH]c2=O)cc1C(F)(F)F	100
COc1cc(NCc2cc3cc(Cl)c(OC4CCN(C)CC4)cc3[nH]c2=O)ccc1C#N	78.8
O=c1[nH]c2ccc(Cl)cc2cc1CNc1ccc(-c2csnn2)cc1	57
Cc1nc(N[C@H](C)c2cc3cc(Cl)ccc3[nH]c2=O)ccc1C#N	89
COc1cc(C#N)ccc1NCc1cc2cc(Cl)ccc2[nH]c1=O	2.1
COc1cc(NCc2cc3cc(Cl)c(OCc4cc(C)n(C)n4)cc3[nH]c2=O)ccc1C#N	52.7
COc1cc(NCc2cc3cc(C)ccc3[nH]c2=O)ccc1C#N	0.49
COc1cc2[nH]c(=O)c(CNc3ccc(C#N)c(OC)c3)cc2cc1Cl	94.9
N#Cc1ccc(NCc2cc3cc(Cl)ccc3[nH]c2=O)cc1	53
COc1cc(NCc2cc3cc(Cl)cc(OCCN4CCOCC4)c3[nH]c2=O)ccc1C#N	2.4
COc1cc(NCc2cc3cc(F)ccc3[nH]c2=O)ccc1C#N	46
COc1cc(NCc2cc3cc(Cl)ccc3[nH]c2=O)cc(OC)c1C#N	59
COc1cc(NCc2cc3ccccc3[nH]c2=O)ccc1-n1cnnn1	69.4
O=c1[nH]c2ccc(Cl)cc2cc1CNc1ccc(-n2ccnc2)cc1	93
COc1cc(N[C@@H](C)c2cc3cc(Cl)ccc3[nH]c2=O)ccc1C#N	71
COc1cc(NCc2cc3ccccc3[nH]c2=O)ccc1C#N	4.6
COc1cc(N[C@@H](C)c2cc3cc(Cl)ccc3[nH]c2=O)ncc1C#N	100
COc1cc(NCc2cc3cc(Cl)ccc3n(C)c2=O)ccc1-n1cnnn1	22
COc1cc(NCc2cc3cc(Cl)ccc3[nH]c2=O)ccc1-n1cnnn1	89.9
COc1cc(NCc2cc3cc(Cl)c(OC[C@@H]4CCCN4C)cc3[nH]c2=O)ccc1C#N	48.8

Test system: not listed separately
Assay: Octanol/aqueous buffer partition coefficient, log D of the compound at pH 7.4
Assay type: physicochemical
Details: not given

SMILES	logD
COc1cc(N[C@@H](C)c2cc3cc(Cl)ccc3[nH]c2=O)ccc1C#N	3.67
COc1nc(N[C@@H](C)c2cc3cc(Cl)ccc3[nH]c2=O)ccc1C#N	3.47
COc1cc(N[C@@H](C)c2cc3cc(Cl)ccc3[nH]c2=O)ncc1C#N	3.38

Target: T1, Isocitrate dehydrogenase [NADP] cytoplasmic (Homo sapiens, UniProt O75874, R132C)
Assay: Inhibition of human Myc-DDK-tagged IDH1 R132C mutant assessed as reduction in NADPH consumption pre-incubated for 15 mins followed by alpha-ketoglutarate substrate and NADPH addition after 45 mins by diaphorase and resazurin dye based assay
Details: not given

T1 sequence (O75874 2-414 R132C limits assumed): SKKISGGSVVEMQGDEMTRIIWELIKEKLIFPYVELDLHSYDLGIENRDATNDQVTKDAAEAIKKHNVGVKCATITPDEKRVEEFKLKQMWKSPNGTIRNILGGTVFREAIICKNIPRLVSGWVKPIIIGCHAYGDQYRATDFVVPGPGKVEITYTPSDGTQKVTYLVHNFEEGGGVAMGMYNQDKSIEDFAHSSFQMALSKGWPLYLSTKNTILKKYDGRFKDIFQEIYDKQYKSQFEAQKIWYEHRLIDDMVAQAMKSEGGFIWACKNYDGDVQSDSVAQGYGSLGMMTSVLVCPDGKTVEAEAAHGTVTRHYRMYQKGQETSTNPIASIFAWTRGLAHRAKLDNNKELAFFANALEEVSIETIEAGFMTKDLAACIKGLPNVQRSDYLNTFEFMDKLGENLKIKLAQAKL

SMILES	IC50 [nM]
COc1nc(N[C@@H](C)c2cc3cc(Cl)c(OC(C)C)cc3[nH]c2=O)ncc1C#N	26
COc1cc(NCc2cc3cc(Cl)c(OCCN(C)C)cc3[nH]c2=O)ccc1C#N	6250
COc1nc(N[C@@H](C)c2cc3cc(Cl)c(C4CC4)cc3[nH]c2=O)ncc1C#N	305
COc1nc(N[C@@H](C)c2cc3cc(Cl)c(OCc4ccccn4)cc3[nH]c2=O)ncc1C#N	43
COc1cc(NCc2cc3cc(Cl)c(OC4CCN(C)CC4)cc3[nH]c2=O)ccc1C#N	5100
COc1nc(N[C@@H](C)c2cc3cc(Cl)c(OCC4CC4)cc3[nH]c2=O)ncc1C#N	53
COc1cc(NCc2cc3cc(Cl)c(OCc4cc(C)n(C)n4)cc3[nH]c2=O)ccc1C#N	317
COc1cc(NCc2cc3cc(Cl)cc(OCc4ccccn4)c3[nH]c2=O)ccc1C#N	3480
COc1cc2[nH]c(=O)c(CNc3ccc(C#N)c(OC)c3)cc2cc1Cl	667
COc1cc(NCc2cc3cc(Cl)cc(OCCN4CCOCC4)c3[nH]c2=O)ccc1C#N	3710
COc1cc(N[C@@H](C)c2cc3cc(Cl)ccc3[nH]c2=O)ccc1C#N	111
COc1nc(N[C@@H](C)c2cc3cc(Cl)c(F)cc3[nH]c2=O)ncc1C#N	184
COc1nc(N[C@@H](C)c2cc3cc(Cl)ccc3[nH]c2=O)ccc1C#N	190
COc1cc(NCc2cc3cc(Cl)c(OC[C@@H]4CCCN4C)cc3[nH]c2=O)ccc1C#N	5870

Test system: not listed separately
Assay: Metabolic stability in human liver microsomes assessed as compound remaining after 30 mins
Assay type: ADME, Microsome
Details: read-out: Stability

SMILES	remaining at 0.5 h [%]
COc1nc(N[C@@H](C)c2cc3cc(Cl)c(OC(C)C)cc3[nH]c2=O)ncc1C#N	100
COc1nc(N[C@@H](C)c2cc3cc(Cl)c(C4CC4)cc3[nH]c2=O)ncc1C#N	93
N#Cc1ccc(NCc2cc3cc(Cl)ccc3[nH]c2=O)cc1C(F)(F)F	100
COc1nc(N[C@@H](C)c2cc3cc(Cl)c(OCc4ccccn4)cc3[nH]c2=O)ncc1C#N	97
COc1cc(NCc2cc3cc(Cl)c(OC4CCN(C)CC4)cc3[nH]c2=O)ccc1C#N	4.3
O=c1[nH]c2ccc(Cl)cc2cc1CNc1ccc(-c2csnn2)cc1	82
Cc1nc(N[C@H](C)c2cc3cc(Cl)ccc3[nH]c2=O)ccc1C#N	100
COc1nc(N[C@@H](C)c2cc3cc(Cl)c(OCC4CC4)cc3[nH]c2=O)ncc1C#N	100
COc1cc(C#N)ccc1NCc1cc2cc(Cl)ccc2[nH]c1=O	79
COc1cc(NCc2cc3cc(Cl)c(OCc4cc(C)n(C)n4)cc3[nH]c2=O)ccc1C#N	32.7
COc1cc(NCc2cc3cc(C)ccc3[nH]c2=O)ccc1C#N	1.2
COc1cc2[nH]c(=O)c(CNc3ccc(C#N)c(OC)c3)cc2cc1Cl	1
N#Cc1ccc(NCc2cc3cc(Cl)ccc3[nH]c2=O)cc1	65
COc1cc(NCc2cc3cc(Cl)cc(OCCN4CCOCC4)c3[nH]c2=O)ccc1C#N	0
COc1cc(NCc2cc3cc(F)ccc3[nH]c2=O)ccc1C#N	81
COc1cc(NCc2cc3cc(Cl)ccc3[nH]c2=O)cc(OC)c1C#N	80
COc1cc(NCc2cc3ccccc3[nH]c2=O)ccc1-n1cnnn1	88
O=c1[nH]c2ccc(Cl)cc2cc1CNc1ccc(-n2ccnc2)cc1	98
COc1cc(N[C@@H](C)c2cc3cc(Cl)ccc3[nH]c2=O)ccc1C#N	75
COc1nc(N[C@@H](C)c2cc3cc(Cl)c(F)cc3[nH]c2=O)ncc1C#N	89
COc1cc(NCc2cc3ccccc3[nH]c2=O)ccc1C#N	35
COc1nc(N[C@@H](C)c2cc3cc(Cl)ccc3[nH]c2=O)ccc1C#N	82
COc1cc(N[C@@H](C)c2cc3cc(Cl)ccc3[nH]c2=O)ncc1C#N	100
COc1cc(NCc2cc3cc(Cl)ccc3n(C)c2=O)ccc1-n1cnnn1	63.7
COc1cc(NCc2cc3cc(Cl)ccc3[nH]c2=O)ccc1-n1cnnn1	93.9
COc1cc(NCc2cc3cc(Cl)c(OC[C@@H]4CCCN4C)cc3[nH]c2=O)ccc1C#N	6.3

Test system: not listed separately
Assay: Kinetic solubility of the compound
Assay type: physicochemical
Details: read-out: Kinetic_solubility

SMILES	solubility kinetic [µM]
COc1nc(N[C@@H](C)c2cc3cc(Cl)c(OC(C)C)cc3[nH]c2=O)ncc1C#N	0.43 (≈ 0.178 µg/mL)
COc1cc(NCc2cc3cc(Cl)c(OCCN(C)C)cc3[nH]c2=O)ccc1C#N	1 (≈ 0.427 µg/mL)
COc1nc(N[C@@H](C)c2cc3cc(Cl)c(C4CC4)cc3[nH]c2=O)ncc1C#N	0.4 (≈ 0.158 µg/mL)
N#Cc1ccc(NCc2cc3cc(Cl)ccc3[nH]c2=O)cc1C(F)(F)F	< 0.1
COc1nc(N[C@@H](C)c2cc3cc(Cl)c(OCc4ccccn4)cc3[nH]c2=O)ncc1C#N	1.5 (≈ 0.694 µg/mL)
COc1cc(NCc2cc3cc(Cl)c(OC4CCN(C)CC4)cc3[nH]c2=O)ccc1C#N	0.41 (≈ 0.186 µg/mL)
Cc1nc(N[C@H](C)c2cc3cc(Cl)ccc3[nH]c2=O)ccc1C#N	8 (≈ 2.71 µg/mL)
COc1nc(N[C@@H](C)c2cc3cc(Cl)c(OCC4CC4)cc3[nH]c2=O)ncc1C#N	< 0.1
COc1cc(C#N)ccc1NCc1cc2cc(Cl)ccc2[nH]c1=O	< 0.1
COc1cc(NCc2cc3cc(Cl)c(OCc4cc(C)n(C)n4)cc3[nH]c2=O)ccc1C#N	< 0.01
COc1cc(NCc2cc3cc(C)ccc3[nH]c2=O)ccc1C#N	1.33 (≈ 0.425 µg/mL)
COc1cc2[nH]c(=O)c(CNc3ccc(C#N)c(OC)c3)cc2cc1Cl	< 0.1
N#Cc1ccc(NCc2cc3cc(Cl)ccc3[nH]c2=O)cc1	0.21 (≈ 0.065 µg/mL)
COc1cc(NCc2cc3cc(Cl)cc(OCCN4CCOCC4)c3[nH]c2=O)ccc1C#N	< 0.1
COc1cc(NCc2cc3cc(F)ccc3[nH]c2=O)ccc1C#N	3.32 (≈ 1.07 µg/mL)
COc1cc(NCc2cc3cc(Cl)ccc3[nH]c2=O)cc(OC)c1C#N	< 0.1
COc1cc(NCc2cc3ccccc3[nH]c2=O)ccc1-n1cnnn1	0.93 (≈ 0.324 µg/mL)
O=c1[nH]c2ccc(Cl)cc2cc1CNc1ccc(-n2ccnc2)cc1	1.57 (≈ 0.551 µg/mL)
COc1cc(N[C@@H](C)c2cc3cc(Cl)ccc3[nH]c2=O)ccc1C#N	4.1 (≈ 1.45 µg/mL)
COc1nc(N[C@@H](C)c2cc3cc(Cl)c(F)cc3[nH]c2=O)ncc1C#N	1.2 (≈ 0.449 µg/mL)
COc1cc(NCc2cc3ccccc3[nH]c2=O)ccc1C#N	6.13 (≈ 1.87 µg/mL)
COc1nc(N[C@@H](C)c2cc3cc(Cl)ccc3[nH]c2=O)ccc1C#N	0.08 (≈ 0.0284 µg/mL)
COc1cc(N[C@@H](C)c2cc3cc(Cl)ccc3[nH]c2=O)ncc1C#N	15.6 (≈ 5.53 µg/mL)
COc1cc(NCc2cc3cc(Cl)ccc3n(C)c2=O)ccc1-n1cnnn1	< 0.01
COc1cc(NCc2cc3cc(Cl)ccc3[nH]c2=O)ccc1-n1cnnn1	< 0.01
COc1cc(NCc2cc3cc(Cl)c(OC[C@@H]4CCCN4C)cc3[nH]c2=O)ccc1C#N	0.72 (≈ 0.326 µg/mL)

Target: T1, Isocitrate dehydrogenase [NADP] cytoplasmic
Assay: Inhibition of IDH1 R132C mutant in human HCT116 cells assessed as reduction in 2-HG levels after 24 hrs by RapidFire high-throughput mass spectrometry assay
Assay type: cell-based
Details: not given

SMILES	IC50 [nM]
COc1nc(N[C@@H](C)c2cc3cc(Cl)c(OC(C)C)cc3[nH]c2=O)ncc1C#N	104
COc1nc(N[C@@H](C)c2cc3cc(Cl)c(C4CC4)cc3[nH]c2=O)ncc1C#N	195
COc1nc(N[C@@H](C)c2cc3cc(Cl)c(OCc4ccccn4)cc3[nH]c2=O)ncc1C#N	22
COc1nc(N[C@@H](C)c2cc3cc(Cl)c(OCC4CC4)cc3[nH]c2=O)ncc1C#N	54
COc1cc(N[C@@H](C)c2cc3cc(Cl)ccc3[nH]c2=O)ccc1C#N	213
COc1nc(N[C@@H](C)c2cc3cc(Cl)c(F)cc3[nH]c2=O)ncc1C#N	259
COc1nc(N[C@@H](C)c2cc3cc(Cl)ccc3[nH]c2=O)ccc1C#N	92

Test system: not listed separately
Assay: Metabolic stability in rat liver microsomes assessed as compound remaining after 30 mins
Assay type: ADME, Microsome
Details: read-out: Stability

SMILES	remaining at 0.5 h [%]
COc1nc(N[C@@H](C)c2cc3cc(Cl)c(OC(C)C)cc3[nH]c2=O)ncc1C#N	90
COc1nc(N[C@@H](C)c2cc3cc(Cl)c(C4CC4)cc3[nH]c2=O)ncc1C#N	68
COc1nc(N[C@@H](C)c2cc3cc(Cl)c(OCc4ccccn4)cc3[nH]c2=O)ncc1C#N	77
COc1nc(N[C@@H](C)c2cc3cc(Cl)c(OCC4CC4)cc3[nH]c2=O)ncc1C#N	100
COc1nc(N[C@@H](C)c2cc3cc(Cl)c(F)cc3[nH]c2=O)ncc1C#N	100
